Results reported in patent US8124793B2, “Derivatives of ethylene methanedisulfonate as cancer chemotherapeutic agents” (priority 2007, dated 2012).

Experiments:
Assay type in all cases: cell-based
EKVX = experiment: NCI screen, growth of human tumor cells: Non-Small Cell Lung EKVX; conditions: EKVX
Method: (§1) In the NCI screening process, each compound was tested and described by a minimum of 60 data points. The test data include, but are not limited to the type of cancer, the molar concentration used in the screen, and the percent growth of the cancer. In some cases, NMR and elemental analysis were used for structural assignment.

NCI-H460 = experiment: NCI screen, growth of human tumor cells: Non-Small Cell Lung NCI-H460; conditions: NCI-H460 (Non-Small Cell Lung), 10^−4 molar
Method: as §1

NCI-H23 = experiment: NCI screen, growth of human tumor cells: Non-Small Cell Lung NCI-H23; conditions: NCI-H23 (Non-Small Cell Lung), 10^−4 molar
Method: as §1

COLO205 = experiment: NCI screen, growth of human tumor cells: Colon Cancer COLO205; conditions: COLO205 (Colon Cancer), 10^−4 molar
Method: as §1

HCT-116 = experiment: NCI screen, growth of human tumor cells: Colon Cancer HCT-116; conditions: HCT-116 (Colon Cancer), 10^−4 molar
Method: as §1

HCT-15 = experiment: NCI screen, growth of human tumor cells: Colon Cancer HCT-15
Method: as §1

M14 = experiment: NCI screen, growth of human tumor cells: Melanoma M14; conditions: M14 (Melanoma), 10^−4 molar
Method: as §1

MALME-3M = experiment: NCI screen, growth of human tumor cells: Melanoma MALME-3M; conditions: MALME-3M (Melanoma), 10^−4 molar
Method: as §1

IGROVI = experiment: NCI screen, growth of human tumor cells: Ovarian Cancer IGROVI; conditions: for % Growth: IGROVI
Method: as §1

OVCAR-3 = experiment: NCI screen, growth of human tumor cells: Ovarian Cancer OVCAR-3; conditions: OVCAR-3 (Ovarian Cancer), 10^−4 molar
Method: as §1

OVCAR-8 = experiment: NCI screen, growth of human tumor cells: Ovarian Cancer OVCAR-8; conditions: OVCAR-8 (Ovarian Cancer), 10^−4 molar
Method: as §1

ACHN = experiment: NCI screen, growth of human tumor cells: Renal Cancer ACHN; conditions: ACHN (Renal Cancer), 10^−4 molar
Method: as §1

CAKI-1 = experiment: NCI screen, growth of human tumor cells: Renal Cancer CAKI-1; conditions: CAKI-1 (Renal Cancer), 10^−4 molar
Method: as §1

PC-3 = experiment: NCI screen, growth of human tumor cells: Prostate Cancer PC-3; conditions: PC-3 (Prostate Cancer), 10^−4 molar
Method: as §1

MCF 7 = experiment: NCI screen, growth of human tumor cells: Breast Cancer MCF 7; conditions: MCF 7 (Breast Cancer), 10^−4 molar
Method: as §1

MCF7/ADR-RES = experiment: NCI screen, growth of human tumor cells: Breast Cancer MCF7/ADR-RES; conditions: MCF7/ADR-RES (Breast Cancer), 10^−4 molar
Method: as §1

MDA-MB-231/ATCC = experiment: NCI screen, growth of human tumor cells: Breast Cancer MDA-MB-231/ATCC; conditions: MDA-MB-231/ATCC (Breast Cancer), 10^−4 molar
Method: as §1

human cancer cells = experiment: NCI screen summary over the cancers tested (negative growth of human cancer cells); conditions: 10^−4 M conc.; cancers with negative growth / cancers tested
Method: as §1
The derivatives in the tables are grouped using the same category as in the tables 1-6.

HOP-92 = experiment: NCI screen, growth of human tumor cells: Non-Small Cell Lung HOP-92; conditions: HOP-92 (Non-Small Cell Lung), 10^−4 molar
Method: as §1

NCI-H522 = experiment: NCI screen, growth of human tumor cells: Non-Small Cell Lung NCI-H522; conditions: NCI-H522 (Non-Small Cell Lung), 10^−4 molar
Method: as §1

HCC-2998 = experiment: NCI screen, growth of human tumor cells: HCC-2998 (listed under Non-Small Cell Lung)
Method: as §1

SF-268 = experiment: NCI screen, growth of human tumor cells: CNS Cancer SF-268; conditions: SF-268 (CNS Cancer), 10^−4 molar
Method: as §1

SNB-75 = experiment: NCI screen, growth of human tumor cells: CNS Cancer SNB-75; conditions: SNB-75 (CNS Cancer), 10^−4 molar
Method: as §1

U-251 = experiment: NCI screen, growth of human tumor cells: CNS Cancer U-251; conditions: U-251 (CNS Cancer), 10^−4 molar
Method: as §1

LOXIMVI = experiment: NCI screen, growth of human tumor cells: Melanoma LOXIMVI; conditions: LOXIMVI (Melanoma), 10^−4 molar
Method: as §1

SK-MEL-5 = experiment: NCI screen, growth of human tumor cells: Melanoma SK-MEL-5; conditions: SK-MEL-5 (Melanoma), 10^−4 molar
Method: as §1

UACC-257 = experiment: NCI screen, growth of human tumor cells: Melanoma UACC-257; conditions: UACC-257 (Melanoma), 10^−4 molar
Method: as §1

UACC-62 = experiment: NCI screen, growth of human tumor cells: Melanoma UACC-62; conditions: UACC-62 (Melanoma), 10^−4 molar
Method: as §1

OVCAR-4 = experiment: NCI screen, growth of human tumor cells: Ovarian Cancer OVCAR-4; conditions: OVCAR-4 (Ovarian Cancer), 10^−4 molar
Method: as §1

SN12C = experiment: NCI screen, growth of human tumor cells: Renal Cancer SN12C; conditions: SN12C (Renal Cancer), 10^−4 molar
Method: as §1

DU-145 = experiment: NCI screen, growth of human tumor cells: Prostate Cancer DU-145; conditions: DU-145 (Prostate Cancer), 10^−4 molar
Method: as §1

BT-549 = experiment: NCI screen, growth of human tumor cells: Breast Cancer BT-549; conditions: BT-549 (Breast Cancer), 10^−4 molar
Method: as §1

HS 578T = experiment: NCI screen, growth of human tumor cells: Breast Cancer HS 578T; conditions: HS 578T (Breast Cancer), 10^−4 molar
Method: as §1

MDA-MB-435 = experiment: NCI screen, growth of human tumor cells: Breast Cancer MDA-MB-435; conditions: for percent of growth of human tumor cells: MDA-MB-435 (Breast Cancer), 10^−4 molar
Method: as §1

HL-60 (TB) = experiment: NCI screen, growth of human tumor cells: Leukemia HL-60 (TB); conditions: HL-60 (TB) (Leukemia), 10^−4 molar
Method: as §1

K562 = experiment: NCI screen, growth of human tumor cells: Leukemia K562; conditions: K562 (Leukemia), 10^−4 molar
Method: as §1

MOLT-4 = experiment: NCI screen, growth of human tumor cells: Leukemia MOLT-4
Method: as §1

SR = experiment: NCI screen, growth of human tumor cells: Leukemia SR; conditions: SR
Method: as §1

HOP-62 = experiment: NCI screen, growth of human tumor cells: Non-Small Cell Lung HOP-62; conditions: HOP-62, 10^−4 molar
Method: as §1

UO-31 = experiment: NCI screen, growth of human tumor cells: Renal Cancer UO-31; conditions: UO-31 (Renal Cancer), 10^−4 molar
Method: as §1

CCRF-CEM = experiment: NCI screen, growth of human tumor cells: Leukemia CCRF-CEM; conditions: CCRF-CEM (Leukemia), 10^−4 molar
Method: as §1

| SMILES | percent of growth of human tumor cells (NCI-H460) [%] | percent of growth of human tumor cells (NCI-H23) [%] | percent of growth of human tumor cells (COLO205) [%] | percent of growth of human tumor cells (M14) [%] | percent of growth of human tumor cells (MALME-3M) [%] | percent of growth of human tumor cells (OVCAR-3) [%] | percent of growth of human tumor cells (MCF 7) [%] | percent of growth of human tumor cells (MCF7/ADR-RES) [%] | Percentage of cancers showing negative growth cancers tested (human cancer cells) | percent of growth of human tumor cells (NCI-H522) [%] | percent of growth of human tumor cells (DU-145) [%] | percent of growth of human tumor cells (HS 578T) [%] | percent of growth of human tumor cells (HL-60 (TB)) [%] | percent of growth of human tumor cells (K562) [%] | % Growth (SR; 10^−4 molar) [%] | % Growth (SR; 10^−5 molar) [%] | percent of growth of human tumor cells (UO-31) [%] | percent of growth of human tumor cells (MDA-MB-435) [%] | also measured |
| --- | --- | --- | --- | --- | --- | --- | --- | --- | --- | --- | --- | --- | --- | --- | --- | --- | --- | --- | --- |
| O=C(c1ccccc1S(=O)(=O)O)C1S(=O)(=O)OCCOS1(=O)=O [NSC 693880] | −11 | 12 | 5 | −4 | −15 | 76 | −1 | 4 | 10^−4 M conc. = 8/17 = 47% | – | – | – | – | – | – | – | – | – | % Growth (EKVX; 10^−4 molar): 25%; % Growth (EKVX; 10^−5 molar): 6%; percent of growth of human tumor cells (HCT-116): 20%; % Growth (HCT-15; HCT-15, 10^−4 molar): −41%; % Growth (HCT-15; HCT-15, 10^−5 molar): 40%; % Growth (IGROVI; 10^−4 molar): −21%; % Growth (IGROVI; 10^−5 molar): 37%; % Growth (IGROVI; 10^−6 molar): 60%; percent of growth of human tumor cells (OVCAR-8): −33%; percent of growth of human tumor cells (ACHN): 8%; percent of growth of human tumor cells (CAKI-1): −8%; percent of growth of human tumor cells (PC-3): 5%; percent of growth of human tumor cells (MDA-MB-231/ATCC): 25% |
| CCOCC1(CC2=C(C)C(=O)c3ccccc3C2=O)S(=O)(=O)OCCOS1(=O)=O [NSC 698124] | 11 | 16 | −25 | – | −9 | −17 | 19 | 30 | 10^−4 M conc. = 8/25 = 32% | −45 | 27 | 27 | – | – | – | – | – | – | percent of growth of human tumor cells (HOP-92): 27%; percent of growth of human tumor cells (HCC-2998; HCC-2998 (under Non-Small Cell Lung), 10^−4 molar): 8%; percent of growth of human tumor cells (HCT-15; HCT-15 (Colon Cancer), 10^−4 molar): 15%; percent of growth of human tumor cells (SF-268): 20%; percent of growth of human tumor cells (SNB-75): 11%; percent of growth of human tumor cells (U-251): 20%; percent of growth of human tumor cells (LOXIMVI): −55%; percent of growth of human tumor cells (SK-MEL-5): 9%; percent of growth of human tumor cells (UACC-257): 12%; percent of growth of human tumor cells (UACC-62): −32%; percent of growth of human tumor cells (IGROVI; IGROVI (Ovarian Cancer), 10^−4 molar): 6%; percent of growth of human tumor cells (OVCAR-4): 14%; percent of growth of human tumor cells (SN12C): −25%; percent of growth of human tumor cells (BT-549): 27%; % Growth (MDA-MB-435; MDA-MB-435, 10^−4 molar): −74% |
| CC1=C(CC2(C(=O)C(=O)OCC3COC(C)(C)O3)S(=O)(=O)OCCOS2(=O)=O)C(=O)c2ccccc2C1=O (stereo not shown) [NSC 737277] | – | – | −8 | – | – | – | – | – | 10^−4 M conc. = 6/9 = 67% | – | – | 24 | −33 | 5 | −25 | 50 | 22 | −11 | percent of growth of human tumor cells (MOLT-4; MOLT-4 (Leukemia), 10^−4 molar): −12%; % Growth (HOP-62): −84% |
| CC1(C)OCC(COC(=O)C(=O)C2(C3=C(Cl)C(=O)c4ccccc4C3=O)S(=O)(=O)OCCOS2(=O)=O)O1 (stereo not shown) [NSC 737278] | – | – | −9 | −4 | – | – | – | – | 10^−4 M conc. = 8/12 = 67% | −30 | 6 | – | −25 | 12 | −37 | 20 | 4 | −45 | percent of growth of human tumor cells (CCRF-CEM): 22%; % Growth (MOLT-4; MOLT-4, 10^−4 molar): −41%; % Growth (MOLT-4; MOLT-4, 10^−5 molar): 53%; % Growth (SR; 10^−6 molar): 33%; % Growth (SR; 10^−7 molar): 56%; % Growth (HCC-2998; HCC-2998, 10^−4 molar): −15%; % Growth (HCC-2998; HCC-2998, 10^−5 molar): 41%; % Growth (HCC-2998; HCC-2998, 10^−6 molar): 45%; % Growth (HCC-2998; HCC-2998, 10^−7 molar): 64% |
